# In patent US20220315554A1, “COMPOUNDS COMPRISING A […] LIGAND AND USE THEREOF” (priority 2019, published 2022):
# Numbered stars: 1 amine (or outer) side, 2 acyl side, 3 side chain; on linkers, the order of the positions; unused ones are H or OH. Bridge positions count the residues as written; N and C are the ends. Square brackets hold non-standard residues; d marks the D form. Peptide text beside a SMILES is read from it. * marks the point of attachment. mXylylene = c1cc(C[*:1])cc(C[*:2])c1; Hexanoyl = CCCCCC(=O)*
# Assays:
# [1] = Plasma stability assay, mouse plasma; type: in vitro ADME; conditions: 4 h incubation, 37° C., read-out: % intact compound remaining after incubation, Mouse plasma
# [2] = target: T1, FAP-expressing human WI-38 fibroblasts (Homo sapiens, UniProt Q12884); assay: Competitive FACS binding assay; conditions: pIC50 Category (FACS), competition with 3 nM Cy5-labeled compound, WI-38 fibroblasts, 4° C., 1 hour
# T1 construct: FAP-expressing human WI-38 fibroblasts (ECACC) were cultured in EMEM; host or cells: WI-38 human fibroblasts
# T1 sequence (Q12884 1-760): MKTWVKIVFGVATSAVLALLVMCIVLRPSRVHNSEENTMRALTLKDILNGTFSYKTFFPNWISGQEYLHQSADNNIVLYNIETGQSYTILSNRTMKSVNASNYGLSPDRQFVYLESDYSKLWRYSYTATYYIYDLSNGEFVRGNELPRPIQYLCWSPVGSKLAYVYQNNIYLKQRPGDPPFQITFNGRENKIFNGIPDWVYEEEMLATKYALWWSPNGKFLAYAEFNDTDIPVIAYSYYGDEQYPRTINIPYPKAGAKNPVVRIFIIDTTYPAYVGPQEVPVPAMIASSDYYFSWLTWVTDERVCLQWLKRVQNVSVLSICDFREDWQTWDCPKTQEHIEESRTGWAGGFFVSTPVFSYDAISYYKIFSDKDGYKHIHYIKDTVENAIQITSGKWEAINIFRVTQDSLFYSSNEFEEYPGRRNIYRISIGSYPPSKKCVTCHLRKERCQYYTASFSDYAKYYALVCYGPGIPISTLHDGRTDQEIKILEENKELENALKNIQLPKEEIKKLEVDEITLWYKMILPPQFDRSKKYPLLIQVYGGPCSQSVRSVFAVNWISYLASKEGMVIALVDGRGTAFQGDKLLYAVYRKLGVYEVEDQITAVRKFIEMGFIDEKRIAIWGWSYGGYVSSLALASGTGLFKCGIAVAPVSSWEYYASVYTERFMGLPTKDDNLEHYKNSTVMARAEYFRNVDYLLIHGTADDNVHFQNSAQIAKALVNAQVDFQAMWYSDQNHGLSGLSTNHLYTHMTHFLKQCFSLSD
# Experimental: Cells were analyzed in an Attune NxT flow cytometer. […]
# Human recombinant FAP [3] = target: T2, Human recombinant FAP (Homo sapiens, UniProt Q12884); assay: Surface plasmon resonance (Biacore) assay; type: binding
# T2 sequence (Q12884 1-760): T1 sequence (Q12884 1-760)
# Human recombinant FAP [4] = target: T2, Human recombinant FAP; assay: FRET-based FAP protease activity assay; type: biochemical; parameters: purchased R&D systems 3715-SE; conditions: pIC50 Category (Activity), recombinant human FAP, FRET substrate, 37° C.
"remaining at 4 h, 9.8 µM [1] [%]",IC50 [2] [nM],Kd (Human recombinant FAP [3]) [nM],IC50 (Human recombinant FAP [4]) [nM],Structure (SMILES)
92,< 10,< 10,< 10,"CCCCCC(=O)N[C@H]1CSCc2cccc(c2)CSC[C@@H](C(=O)N[C@@H](CC(=O)O)C(=O)N[C@@H](Cc2c[nH]cn2)C(=O)N[C@@H](Cc2ccccc2)C(=O)N[C@@H](CCCNC(=N)N)C(=O)N[C@@H](CC(=O)O)C(N)=O)NC(=O)[C@H](Cc2ccccc2)NC(=O)[C@H](CCC(=O)O)NC(=O)[C@H]([C@@H](C)O)NC(=O)[C@@H]2CCCN2C(=O)[C@@H]2CCCN2C1=O [3BP-2974, Hex-[Cys(3MeBn)-Pro-Pro-Thr-Glu-Phe-Cys]-Asp-His-Phe-Arg-Asp-NH2] (Hexanoyl-CPPTEFCDHFRD-NH2; linker 1-7 via mXylylene)"
100,< 10,< 10,< 10,"CSCC[C@H](NC(C)=O)C(=O)N[C@H]1CSCc2cccc(c2)CSC[C@@H](C(=O)N[C@@H](CC(=O)O)C(=O)N[C@@H](Cc2c[nH]cn2)C(=O)N[C@@H](Cc2ccccc2)C(=O)N[C@@H](CCCNC(=N)N)C(=O)N[C@@H](CC(=O)O)C(N)=O)NC(=O)[C@H](Cc2ccccc2)NC(=O)[C@H](CCC(=O)O)NC(=O)[C@H]([C@@H](C)O)NC(=O)[C@@H]2CCCN2C(=O)[C@@H]2CCCN2C1=O [3BP-2975, Ac-Met-[Cys(3MeBn)-Pro-Pro-Thr-Glu-Phe-Cys]-Asp-His-Phe-Arg-Asp-NH2] (Ac-MCPPTEFCDHFRD-NH2; linker 2-8 via mXylylene)"
78,< 10,< 10,< 10,"CC(=O)N[C@H]1CSCc2cccc(c2)CSC[C@@H](C(=O)N[C@@H](CC(=O)O)C(=O)N[C@@H](Cc2c[nH]cn2)C(=O)N[C@@H](Cc2ccccc2)C(=O)N[C@@H](CCCNC(=N)N)C(=O)N[C@@H](CC(=O)O)C(N)=O)NC(=O)[C@H](Cc2ccccc2)NC(=O)[C@H](CCC(=O)O)NC(=O)[C@H]([C@@H](C)O)NC(=O)[C@@H]2CCCN2C(=O)[C@@H]2CCCN2C1=O [3BP-3202, Ac-[Cys(3MeBn)-Pro-Pro-Thr-Glu-Phe-Cys]-Asp-His-Phe-Arg-Asp-NH2] (Ac-CPPTEFCDHFRD-NH2; linker 1-7 via mXylylene)"
80,< 10,,< 10,"CSCC[C@H](NC(C)=O)C(=O)N[C@H]1CSCc2cccc(c2)CSC[C@@H](C(=O)N[C@@H](CC(=O)O)C(=O)N[C@@H](Cc2c[nH]cn2)C(=O)N[C@@H](Cc2ccccc2)C(=O)N[C@H](CCCNC(=N)N)C(=O)N[C@@H](CC(=O)O)C(N)=O)NC(=O)[C@H](Cc2ccccc2)NC(=O)[C@H](CCC(=O)O)NC(=O)[C@H]([C@@H](C)O)NC(=O)[C@@H]2CCCN2C(=O)[C@@H]2CCCN2C1=O [3BP-3212, Ac-Met-[Cys(3MeBn)-Pro-Pro-Thr-Glu-Phe-Cys]-Asp-His-Phe-arg-Asp-NH2] (Ac-MCPPTEFCDHF[dR]D-NH2; linker 2-8 via mXylylene)"
